Laboratory results as given in patent publication US20070048370A1, “Pharmaceutical formulation for salts of monobasic acids with clopidogrel” (priority 2005, published 2007).
Like-named read-outs stand apart in the source and are kept apart here.

Protocol: The stability of clopidogrel besylate in the presence of various tabletting excipients was investigated. For this purpose, clopidogrel besylate was thoroughly triturated with the excipient in the ratio 1:1 and stored for two weeks at 40° C. and 75% relative humidity. The content of clopidogrel besylate in the sample was then determined.

- Clopidogrel besylate Residual content (%) (1:1 with AcDiSol, two weeks at 40° C. and 75% relative humidity): 94.00%
- Clopidogrel besylate Residual content (%) (1:1 with Lactose, two weeks at 40° C. and 75% relative humidity): 99.86%
- Clopidogrel besylate Residual content (%) (1:1 with Macrogol 6000, two weeks at 40° C. and 75% relative humidity): 90.07%
- Clopidogrel besylate Residual content (%) (1:1 with Mannitol, two weeks at 40° C. and 75% relative humidity): 99.85%
- Clopidogrel besylate Residual content (%) (1:1 with Mg-stearate, two weeks at 40° C. and 75% relative humidity): 51.99%
- Clopidogrel besylate Residual content (%) (1:1 with Microcrystalline cellulose, two weeks at 40° C. and 75% relative humidity): 99.24%
- Clopidogrel besylate Residual content (%) (1:1 with Silica, two weeks at 40° C. and 75% relative humidity): 99.44%
- Clopidogrel besylate Residual content (%) (1:1 with Stearic acid, two weeks at 40° C. and 75% relative humidity): 99.50%
- Clopidogrel besylate Residual content (%) (no excipient, stored two weeks at 40° C. and 75% relative humidity, content vs beginning of storage): 99.76%
- Compatibility with excipient (decomposition of the active substance) (with Macrogol 6000): incompatible
- Compatibility with excipient (decomposition of the active substance) (with Magnesium stearate): incompatible
- Compatibility with excipient (decomposition of the active substance) (with croscarmellose sodium (AcDiSol)): incompatible
- Compatibility with excipient (decomposition of the active substance) (with sodium lauryl sulfate): incompatible
Substance: 5-methyl-a-(4,5,6,7-tetrahydro[2,3-c]thienopyridyl)(2-chlorophenyl)acetate [Clopidogrel besylate]
